What was measured:
[1] = target: T1, Epidermal growth factor receptor (Homo sapiens, UniProt P00533)
Description: Inhibition of wild type EGFR (unknown origin) using poly (Glu:Tyr) as substrate incubated for 1 hr in presence of ATP by ADP-glo kinase assay

HepG2 = experiment: cells; conditions: Homo sapiens, HepG2, 72 h
[2] = target: Epidermal growth factor receptor (Homo sapiens, UniProt P00533, L858R/T790M)
in vitro = conditions: human, HepG2 cells and A549 cells
Description: Selectivity index, ratio of IC50 for human HepG2 cells to IC50 for human A549 cells

A549 = experiment: cells; conditions: Homo sapiens, A549, 72 h
[3] = Aqueous solubility of the compound in PBS buffer at PH 7.4 measured after 6 hrs by HPLC-UV analysis; format: physicochemical; conditions: pH 7.4, 6 h
physchem = conditions: 1-octanol/PBS, pH 7.4
A-431 = experiment: cells; conditions: Homo sapiens, A-431, 72 h
[4] = target: T2, Tyrosine-protein kinase JAK3 (Homo sapiens, UniProt P52333)
T2 sequence (P52333 whole entry): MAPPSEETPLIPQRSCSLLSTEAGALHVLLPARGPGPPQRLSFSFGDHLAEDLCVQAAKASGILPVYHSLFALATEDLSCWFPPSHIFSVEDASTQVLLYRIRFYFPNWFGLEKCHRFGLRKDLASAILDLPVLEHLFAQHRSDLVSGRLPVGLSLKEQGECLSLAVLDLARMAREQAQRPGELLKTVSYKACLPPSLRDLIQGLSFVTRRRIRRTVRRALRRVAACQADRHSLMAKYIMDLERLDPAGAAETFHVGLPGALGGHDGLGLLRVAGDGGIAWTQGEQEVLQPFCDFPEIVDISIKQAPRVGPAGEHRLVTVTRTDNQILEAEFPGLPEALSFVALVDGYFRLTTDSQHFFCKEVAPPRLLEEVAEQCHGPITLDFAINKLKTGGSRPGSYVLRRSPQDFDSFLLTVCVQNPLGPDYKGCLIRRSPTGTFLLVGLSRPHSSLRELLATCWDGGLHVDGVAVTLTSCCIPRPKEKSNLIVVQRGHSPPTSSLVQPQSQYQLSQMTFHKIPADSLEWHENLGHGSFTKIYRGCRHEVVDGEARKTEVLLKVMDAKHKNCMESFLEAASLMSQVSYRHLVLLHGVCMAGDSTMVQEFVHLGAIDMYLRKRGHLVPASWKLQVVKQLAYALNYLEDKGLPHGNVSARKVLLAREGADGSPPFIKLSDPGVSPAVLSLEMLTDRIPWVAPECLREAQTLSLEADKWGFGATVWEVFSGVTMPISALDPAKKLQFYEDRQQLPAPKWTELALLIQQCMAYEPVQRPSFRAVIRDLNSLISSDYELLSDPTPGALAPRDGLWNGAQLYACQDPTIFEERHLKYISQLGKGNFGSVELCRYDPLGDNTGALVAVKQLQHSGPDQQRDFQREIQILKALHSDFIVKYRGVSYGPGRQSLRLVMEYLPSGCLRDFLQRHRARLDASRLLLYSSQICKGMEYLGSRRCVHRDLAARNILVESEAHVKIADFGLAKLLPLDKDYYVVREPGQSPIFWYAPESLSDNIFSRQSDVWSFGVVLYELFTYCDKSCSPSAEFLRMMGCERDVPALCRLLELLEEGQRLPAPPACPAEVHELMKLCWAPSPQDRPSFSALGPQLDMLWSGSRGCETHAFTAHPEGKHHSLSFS
Description: Inhibition of JAK3 (unknown origin) using poly (Glu:Tyr) as substrate incubated for 1 hr in presence of ATP by ADP-glo kinase assay

[5] = target: T1, Epidermal growth factor receptor; experiment: Binding affinity to wild type EGFR (unknown origin) assessed as inhibition constant
[6] = target: T1, Epidermal growth factor receptor; remark: listed apart in the source
Description: Irreversible inhibition of wild type EGFR (unknown origin) assessed as inactivation constant

[7] = target: T1, Epidermal growth factor receptor; experiment: Potency index, ratio of rociletinib IC50 to test compound IC50 for inhibition of wild type EGFR (unknown origin)

Chain of Epidermal growth factor receptor (Homo sapiens, UniProt P00533, L858R/T790M) (P00533 25-1210 T790M/L858R limits assumed): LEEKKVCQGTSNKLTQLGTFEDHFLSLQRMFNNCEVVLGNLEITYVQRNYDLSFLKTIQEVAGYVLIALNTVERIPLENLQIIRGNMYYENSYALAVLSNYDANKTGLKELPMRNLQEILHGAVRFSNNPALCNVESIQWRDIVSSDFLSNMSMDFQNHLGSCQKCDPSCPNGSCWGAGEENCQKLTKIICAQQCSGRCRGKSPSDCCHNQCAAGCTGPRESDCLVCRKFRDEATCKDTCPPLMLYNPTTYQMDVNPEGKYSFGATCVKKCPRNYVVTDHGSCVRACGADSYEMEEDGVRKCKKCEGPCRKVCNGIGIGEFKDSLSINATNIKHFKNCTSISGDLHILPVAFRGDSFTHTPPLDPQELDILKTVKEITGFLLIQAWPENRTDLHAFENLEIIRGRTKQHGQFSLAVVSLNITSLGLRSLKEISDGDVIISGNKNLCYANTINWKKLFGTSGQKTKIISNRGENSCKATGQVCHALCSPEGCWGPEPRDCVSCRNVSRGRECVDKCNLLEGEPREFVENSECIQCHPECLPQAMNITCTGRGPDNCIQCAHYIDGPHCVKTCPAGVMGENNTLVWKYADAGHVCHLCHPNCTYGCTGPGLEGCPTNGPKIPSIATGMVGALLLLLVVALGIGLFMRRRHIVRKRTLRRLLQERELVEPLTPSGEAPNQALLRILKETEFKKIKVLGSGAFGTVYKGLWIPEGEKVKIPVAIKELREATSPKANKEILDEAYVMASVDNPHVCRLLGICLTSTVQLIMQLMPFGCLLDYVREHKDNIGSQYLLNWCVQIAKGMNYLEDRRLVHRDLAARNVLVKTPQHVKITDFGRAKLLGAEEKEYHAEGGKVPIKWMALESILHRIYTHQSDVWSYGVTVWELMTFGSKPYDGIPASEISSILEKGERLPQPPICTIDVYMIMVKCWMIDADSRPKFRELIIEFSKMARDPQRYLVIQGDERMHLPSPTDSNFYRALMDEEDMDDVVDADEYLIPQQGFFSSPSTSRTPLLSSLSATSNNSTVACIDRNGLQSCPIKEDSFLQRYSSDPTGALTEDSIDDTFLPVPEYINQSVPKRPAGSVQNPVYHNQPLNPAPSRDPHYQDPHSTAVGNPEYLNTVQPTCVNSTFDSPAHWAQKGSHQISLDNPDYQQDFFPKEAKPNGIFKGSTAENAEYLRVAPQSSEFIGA
T1 sequence (P00533 whole entry): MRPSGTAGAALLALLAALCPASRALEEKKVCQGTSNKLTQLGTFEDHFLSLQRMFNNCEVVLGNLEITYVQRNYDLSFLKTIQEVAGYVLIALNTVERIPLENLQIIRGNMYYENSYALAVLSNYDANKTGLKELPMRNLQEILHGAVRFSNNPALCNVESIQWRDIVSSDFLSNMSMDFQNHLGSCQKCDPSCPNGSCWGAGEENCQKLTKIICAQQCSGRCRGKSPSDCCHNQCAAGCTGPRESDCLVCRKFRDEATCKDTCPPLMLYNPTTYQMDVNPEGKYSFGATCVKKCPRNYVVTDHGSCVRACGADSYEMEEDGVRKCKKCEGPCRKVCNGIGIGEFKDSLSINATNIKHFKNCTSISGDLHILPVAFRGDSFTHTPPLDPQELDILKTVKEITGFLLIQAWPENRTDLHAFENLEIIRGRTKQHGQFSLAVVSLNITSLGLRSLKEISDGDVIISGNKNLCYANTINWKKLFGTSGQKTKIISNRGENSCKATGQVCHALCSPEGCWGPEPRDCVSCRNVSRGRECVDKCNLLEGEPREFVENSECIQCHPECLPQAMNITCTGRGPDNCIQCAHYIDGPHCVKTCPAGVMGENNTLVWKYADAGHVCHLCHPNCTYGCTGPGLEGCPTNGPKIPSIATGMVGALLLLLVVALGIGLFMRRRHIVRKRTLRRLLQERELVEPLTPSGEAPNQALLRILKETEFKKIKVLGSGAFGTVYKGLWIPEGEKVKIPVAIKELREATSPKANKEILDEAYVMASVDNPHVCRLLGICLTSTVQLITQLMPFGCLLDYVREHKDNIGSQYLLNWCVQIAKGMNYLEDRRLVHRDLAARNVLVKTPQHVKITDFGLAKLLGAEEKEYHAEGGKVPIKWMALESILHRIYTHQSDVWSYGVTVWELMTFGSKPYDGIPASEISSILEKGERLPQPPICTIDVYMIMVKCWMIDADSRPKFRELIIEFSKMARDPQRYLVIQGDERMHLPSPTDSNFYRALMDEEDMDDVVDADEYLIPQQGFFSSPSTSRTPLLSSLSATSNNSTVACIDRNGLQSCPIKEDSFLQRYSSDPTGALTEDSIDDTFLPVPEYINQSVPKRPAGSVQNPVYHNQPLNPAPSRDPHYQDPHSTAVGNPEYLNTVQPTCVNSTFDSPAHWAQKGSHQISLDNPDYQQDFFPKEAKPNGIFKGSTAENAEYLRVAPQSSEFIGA

SMILES | IC50 [1] [µM] | IC50 (HepG2) [µM] | IC50 [2] [µM] | selectivity ratio (in vitro) | IC50 (A549) [µM] | solubility [3] [µg] | logD at 6 h (physchem) | IC50 (A-431) [µM] | further results
C=CC(=O)Nc1cccc(Nc2nc(Nc3ccc4[nH]c(=O)oc4c3)ncc2Cl)c1 | 0.0635 |  |  |  |  |  |  |  | 
C=CC(=O)Nc1cccc(Nc2nc(Nc3ccc(N4CCN(C(C)=O)CC4)cc3)ncc2Cl)c1 | 0.0436 | 1.07 | 0.0697 | 4.65 | 0.23 | 13.4 | 3.18 | 3.47 | 
CCC(=O)Nc1cccc(Nc2nc(Nc3ccc(N4CCN(C(C)=O)CC4)cc3)ncc2Cl)c1 | 0.0659 |  |  |  |  |  |  |  | 
CC(=O)N1CCN(c2ccc(Nc3ncc(Cl)c(Nc4cccc(NC(=O)/C=C/c5ccccc5)c4)n3)cc2)CC1 | 0.0878 |  |  |  |  |  |  |  | 
CCC(=O)Nc1cccc(Nc2nc(Nc3ccc(N4CCN(C(C)=O)CC4)cc3OC)ncc2Cl)c1 | 0.0629 |  |  |  |  |  |  |  | 
O=C(/C=C/c1ccccc1)Nc1cccc(Nc2nc(Nc3ccc4[nH]c(=O)oc4c3)ncc2Cl)c1 | 0.0767 |  |  |  |  |  |  |  | 
CCC(=O)Nc1cccc(Nc2nc(Nc3ccc4[nH]c(=O)oc4c3)ncc2Cl)c1 | 0.116 |  |  |  |  |  |  |  | 
C=CC(=O)Nc1cccc(Nc2nc(Nc3ccc4c(C)n(C)nc4c3)ncc2Cl)c1 | 0.0978 |  |  |  |  |  |  |  | 
Cn1cc(Nc2ncc(Cl)c(Nc3cccc(NC(=O)/C=C/c4ccccc4)c3)n2)cn1 | 0.0448 | 3.65 | 0.0228 | 2.46 | 1.48 | 1.35 | 4.18 | 10.5 | IC50 [4]: 0.008 µM
C=CC(=O)Nc1cccc(Nc2nc(Nc3ccc(N4CCN(C(C)=O)CC4)cc3OC)ncc2C(F)(F)F)c1 [ROCILETINIB] |  | 7.39 |  |  | 0.2 | 221 | 3.18 | 0.32 | IC50 [4]: 0.0043 µM
O=C(CCl)Nc1cccc(Nc2nc(Nc3ccc4[nH]c(=O)oc4c3)ncc2Cl)c1 | 0.0431 | 7.06 | 0.0632 | 0.96 | 7.29 | 15.4 | 3.51 | 7.49 | 
CCC(=O)Nc1cccc(Nc2nc(Nc3ccc4c(C)n(C)nc4c3)ncc2Cl)c1 | 0.0592 |  |  |  |  |  |  |  | 
C=CC(=O)Nc1cccc(Nc2nc(Nc3ccc(N4CCN(C(C)=O)CC4)cc3OC)ncc2Cl)c1 | 0.0876 |  |  |  |  |  |  |  | 
C=CC(=O)Nc1cccc(Nc2nc(Nc3cnn(C)c3)ncc2Cl)c1 | 0.174 | 3.25 | 0.0207 | 4.11 | 0.79 | 109 | 2.86 | 6.39 | IC50 [4]: 0.0695 µM; Ki [5]: 3810 µM; Kinact [6]: 6.16 10^-1/s
COc1cc(N2CCN(C(C)=O)CC2)ccc1Nc1ncc(Cl)c(Nc2cccc(NC(=O)/C=C/c3ccccc3)c2)n1 | 0.058 |  |  |  |  |  |  |  | 
C=CC(=O)Nc1cc(Nc2nccc(-c3cn(C)c4ccccc34)n2)c(OC)cc1N(C)CCN(C)C [OSIMERTINIB] |  | 3.65 |  |  | 10.2 | 30.1 | 3.43 | […] | IC50 [4]: 0.0353 µM
Cn1cc(Nc2ncc(Cl)c(Nc3cccc(NC(=O)CCl)c3)n2)cn1 | 0.0416 | 4.3 | 0.0478 | 1.54 | 2.78 | 183 | 2.6 | 3.7 | IC50 [4]: 0.911 µM
Cc1c2ccc(Nc3ncc(Cl)c(Nc4cccc(NC(=O)/C=C/c5ccccc5)c4)n3)cc2nn1C | 0.0656 |  |  |  |  |  |  |  | 
COc1cc(N2CCN(C(C)=O)CC2)ccc1Nc1ncc(Cl)c(Nc2cccc(NC(=O)CCl)c2)n1 | 0.0226 | 12.6 | 0.0568 | 2.18 | 5.78 | 8.65 | 3.67 | 7.05 | Ratio IC50 [7]: 28
CC(=O)N1CCN(c2ccc(Nc3ncc(Cl)c(Nc4cccc(NC(=O)CCl)c4)n3)cc2)CC1 | 0.114 |  |  |  |  |  |  |  | 
Cc1c2ccc(Nc3ncc(Cl)c(Nc4cccc(NC(=O)CCl)c4)n3)cc2nn1C | 0.0789 |  |  |  |  |  |  |  | 
CCC(=O)Nc1cccc(Nc2nc(Nc3cnn(C)c3)ncc2Cl)c1 | 0.035 | 28.3 | 0.0189 | 10.2 | 2.77 | 80.1 | 2.67 | 11.2 | IC50 [4]: 0.0317 µM

— ChEMBL document CHEMBL6092148, “Design, preparation and biological evaluation of new Rociletinib-inspired analogs as irreversible EGFR inhibitors to treat non-small-cell-lung cancer” (Bioorg Med Chem, 2024)
